Data reported in ChEMBL document CHEMBL1132864, “Anti-AIDS agents part 41: synthesis and anti-HIV activity of 3',4'-di-o-(-)-camphanoyl-(+)-cis-khellactone (DCK) lactam analogues” (Bioorg Med Chem Lett, 2000).

How the values were obtained:
H9 [1] = test: Concentration required to inhibit uninfected H9 cell growth; assay type: functional, cell-based; details: Homo sapiens
[2] = Therapeutic index for inhibition of uninfected H9 cell growth to that of inhibition of HIV-1 replication in H9 lymphocyte cells; […]; assay type: cell-based; details: human
[3] = Therapeutic index for inhibition of uninfected H9 cell growth to that of inhibition of HIV-1 replication in H9 lymphocyte cells; Precipitated in the media; assay type: cell-based; details: human
H9 [4] = test: Concentration required to inhibit HIV-1 replication in H9 lymphocyte cells; assay type: functional, cell-based; details: Homo sapiens
[5] = Therapeutic index for inhibition of uninfected H9 cell growth to that of inhibition of HIV-1 replication in H9 lymphocyte cells.; assay type: cell-based; details: human, H9 lymphocyte cells (uninfected and HIV-1 infected); read-out: TI
[6] = Therapeutic index for inhibition of uninfected H9 cell growth to that of inhibition of HIV-1 replication in H9 lymphocyte cells;Did not dissolve; assay type: cell-based; details: human

Row | SMILES | IC50 (H9 [1]) | TI [2] | selectivity ratio [5] | further results
1 | Cc1cc(O)nc2cc(N)ccc12 | 104 µM | Not Active |  | 
2 | Cc1cc(=O)n(C(=O)OC(C)(C)C)c2c3c(ccc12)OC(C)(C)C=C3 |  |  |  | TI [3]: Precipitated
3 | Cc1c(O)nc2c3c(ccc2c1C)OC(C)(C)[C@H](OC(=O)C12CCC(C)(C(=O)O1)C2(C)C)[C@@H]3OC(=O)C12CCC(C)(C(=O)O1)C2(C)C (stereo partly specified) | 42 µM |  | 9100 | EC50 (H9 [4]): 0.0046 µM
4 | CC1(C)Oc2ccc3ccc(=O)oc3c2[C@@H](OC(=O)C23CCC(C)(C(=O)O2)C3(C)C)[C@H]1OC(=O)C12CCC(C)(C(=O)O1)C2(C)C (stereo partly specified) |  |  | 137000 | 
5 | Cc1cc(=O)n(C(=O)OC(C)(C)C)c2c3c(ccc12)OC(C)(C)[C@H](O)[C@@H]3O |  |  |  | TI [3]: Precipitated
6 | Cc1cc(O)nc2c3c(ccc12)OC(C)(C)C=C3 |  |  |  | TI [6]: Did not dissolve
7 | Cc1cc(O)nc2c3c(ccc12)OC(C)(C)[C@H](OC(=O)C12CCC(C)(C(=O)O1)C2(C)C)[C@@H]3OC(=O)C12CCC(C)(C(=O)O1)C2(C)C (stereo partly specified) | 28 µM |  | 119000 | EC50 (H9 [4]): 0.00024 µM
8 | Cc1cc(O)nc2cc(O)ccc12 | 125 µM | Not Active |  | 
9 | Cc1cc(=O)n(C(=O)OC(C)(C)C)c2c3c(ccc12)OC(C)(C)[C@H](OC(=O)C12CCC(C)(C(=O)O1)C2(C)C)[C@@H]3OC(=O)C12CCC(C)(C(=O)O1)C2(C)C (stereo partly specified) | > 157 µM | Not Active |  | 
